According to ChEMBL document CHEMBL1201862, “PubChem BioAssay data set” (2004):
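In this assay, cells in 96-well plates receive the compound at five concentrations for 48 hours. Endpoints are linearly interpolated between the surrounding concentrations. At the GI50, growth is halved.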 The source made the active and inactive calls. No stated cut-off is given here; in the data, active = GI50 up to about 1.1 µM and inactive = higher.

Tests used:
Assay in all cases: growth of human tumour cells (NCI), 48 h
OVCAR-8 = tested on: OVCAR-8
MDA-N = tested on: MDA-N
MCF7 = tested on: MCF7
SNB-75 = tested on: SNB-75
KM12 = tested on: KM12
SNB-19 = tested on: SNB-19
UACC-257 = tested on: UACC-257
DU-145 = tested on: DU-145
CCRF-CEM = tested on: CCRF-CEM
SK-MEL-2 = tested on: SK-MEL-2
NCI-H460 = tested on: NCI-H460
HL-60 = tested on: HL-60
UO-31 = tested on: UO-31
SF-295 = tested on: SF-295
HCT-116 = tested on: HCT-116
OVCAR-5 = tested on: OVCAR-5
IGROV-1 = tested on: IGROV-1
SK-MEL-5 = tested on: SK-MEL-5
Malme-3M = tested on: Malme-3M
SR = tested on: SR

SMILES	GI50 (OVCAR-8)	GI50 (MDA-N)	GI50 (MCF7)	GI50 (SNB-75)	GI50 (KM12)	GI50 (SNB-19)	GI50 (UACC-257)	GI50 (DU-145)	GI50 (CCRF-CEM)	GI50 (SK-MEL-2)	GI50 (NCI-H460)	GI50 (HL-60)	GI50 (UO-31)	GI50 (SF-295)	GI50 (HCT-116)	GI50 (OVCAR-5)	GI50 (IGROV-1)	GI50 (SK-MEL-5)	GI50 (Malme-3M)	GI50 (SR)
O=S(=O)(CC#CCS(=O)(=O)c1ccccc1)c1ccccc1	1.76 µM (inactive)	1.77 µM (inactive)	1.99 µM (inactive)	1.48 µM (inactive)	12.4 µM (inactive)	16.3 µM (inactive)	4.32 µM (inactive)	4.91 µM (inactive)	0.0982 µM (active)	5.69 µM (inactive)	12.6 µM (inactive)	3.1 µM (inactive)	1.42 µM (inactive)	18.5 µM (inactive)	1.01 µM (active)	4.63 µM (inactive)	1.44 µM (inactive)	4.9 µM (inactive)	1.9 µM (inactive)	2.66 µM (inactive)
OCCNc1nc2c(N3CCCC3)nc(N3CCNCC3)nc2nc1NCc1ccccc1	15.9 µM (inactive)	11.9 µM (inactive)	14.3 µM (inactive)	13.3 µM (inactive)	11.9 µM (inactive)	15.8 µM (inactive)	17.3 µM (inactive)	11.3 µM (inactive)	10.8 µM (inactive)	15 µM (inactive)	15.5 µM (inactive)	15.5 µM (inactive)	15.3 µM (inactive)	17.6 µM (inactive)	10.1 µM (inactive)	12.1 µM (inactive)	11.9 µM (inactive)	12.6 µM (inactive)	19.6 µM (inactive)	13.3 µM (inactive)
CCOC(=O)c1ccc(Nc2cnc3ccc(C(F)(F)F)cc3n2)cc1	12.8 µM (inactive)	17.9 µM (inactive)	19.1 µM (inactive)	17.9 µM (inactive)	13.1 µM (inactive)	28.1 µM (inactive)	18.4 µM (inactive)	18.2 µM (inactive)	12.1 µM (inactive)	15.1 µM (inactive)	14.2 µM (inactive)	15.9 µM (inactive)	20.1 µM (inactive)	20.7 µM (inactive)	14.8 µM (inactive)	24.9 µM (inactive)	15 µM (inactive)	15.5 µM (inactive)	21.4 µM (inactive)	10.3 µM (inactive)
CCCCCCCCCCCCCCCCCCNc1ccn(C2OC(COP(=O)(O)OCC3OC(n4ccc(NC(=O)CCCCCCCCCCCCCCCCC)nc4=O)C(OC(C)=O)C3OC(C)=O)C(OC(C)=O)C2OC(C)=O)c(=O)n1 (stereo not given)	> 100 µM (inactive)	> 100 µM (inactive)	> 100 µM (inactive)	> 100 µM (inactive)	> 100 µM (inactive)	> 100 µM (inactive)	> 100 µM (inactive)	> 100 µM (inactive)	> 100 µM (inactive)	> 100 µM (inactive)	> 100 µM (inactive)	> 100 µM (inactive)	> 100 µM (inactive)	> 100 µM (inactive)	> 100 µM (inactive)	> 100 µM (inactive)	> 100 µM (inactive)	> 100 µM (inactive)	> 100 µM (inactive)	> 100 µM (inactive)
CCC/C(Cl)=N\OC(=O)Nc1ccc(F)cc1	25.4 µM (inactive)	16.3 µM (inactive)	20 µM (inactive)	> 42.7 µM (inactive)	20.6 µM (inactive)	19.2 µM (inactive)	16.7 µM (inactive)	17 µM (inactive)	1.63 µM (inactive)	18.2 µM (inactive)	> 100 µM (inactive)	1.87 µM (inactive)	17.7 µM (inactive)	> 100 µM (inactive)	16.7 µM (inactive)	18.7 µM (inactive)	17.3 µM (inactive)	13.3 µM (inactive)	6.87 µM (inactive)	2.18 µM (inactive)
Cc1cc(=O)oc2cc(O)ccc12 [HYMECROMONE]	> 100 µM (inactive)	> 100 µM (inactive)	> 100 µM (inactive)	39.1 µM (inactive)	> 100 µM (inactive)	> 100 µM (inactive)	> 100 µM (inactive)	> 100 µM (inactive)	> 100 µM (inactive)	> 100 µM (inactive)	> 100 µM (inactive)	> 100 µM (inactive)	> 100 µM (inactive)	> 100 µM (inactive)	> 100 µM (inactive)	> 100 µM (inactive)	> 100 µM (inactive)	> 100 µM (inactive)	> 100 µM (inactive)	69 µM (inactive)
